Earlier results, collected in US9168226B1, “Injectable particle” (priority 2015, dated 2015).
Values after ≈ are worked out from the molar mass of the structure shown. Like-named read-outs stand apart in the source and are kept apart here.

SMILES: Cc1nc(Nc2ncc(C(=O)Nc3c(C)cccc3Cl)s2)cc(N2CCN(CCO)CC2)n1 [dasatinib, Dasatinib]
- aqueous solubility (pH 2.6): 18400 µg/mL (≈ 37.7 mM)
- aqueous solubility (pH 6.0): 8 µg/mL (≈ 0.0164 mM)
